This passage reports IC50 and inhibition in vivo results from patent US5286737A, “Method for inhibiting aromatase” (Kureha Kagaku Kogyo Kabushiki Kaisha, priority 1992, dated 1994).

The target of one experiment is T1, aromatase (Homo sapiens, UniProt P11511).
T1 construct: microsomes arising from human placenta (0.1 mg/ml, protein concentration); from tissue; host or cells: human placenta microsomes
T1 sequence (P11511 1-503): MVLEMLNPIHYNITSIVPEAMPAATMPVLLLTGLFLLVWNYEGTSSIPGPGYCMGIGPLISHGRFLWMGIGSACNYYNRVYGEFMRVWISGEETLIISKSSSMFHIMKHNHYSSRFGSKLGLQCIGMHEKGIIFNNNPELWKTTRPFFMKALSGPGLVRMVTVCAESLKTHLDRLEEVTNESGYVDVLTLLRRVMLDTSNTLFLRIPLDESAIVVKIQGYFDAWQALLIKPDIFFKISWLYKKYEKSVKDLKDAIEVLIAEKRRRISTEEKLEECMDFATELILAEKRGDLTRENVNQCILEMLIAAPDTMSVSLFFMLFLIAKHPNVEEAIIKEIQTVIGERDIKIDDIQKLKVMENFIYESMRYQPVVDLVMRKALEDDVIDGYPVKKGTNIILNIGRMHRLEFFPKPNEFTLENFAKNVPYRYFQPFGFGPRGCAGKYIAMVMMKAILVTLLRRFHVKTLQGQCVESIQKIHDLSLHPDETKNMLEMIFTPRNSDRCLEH
Briefly: Aromatase inhibitory activity (H14COOH release from [19-14C]4-androstene-3,17-dione, human placenta microsomes). It is filed as biochemical. The method, then:
The aromatase inhibitory activity was measured in the manner described by Covey, D. F., Biochem. and Biophys. Res. Commun., 157 (1) 81-86 (1988). The inhibitory activity of the aromatase with the compounds was evaluated in a 50% inhibitory concentration (IC50) of the aromatase activity.
Aromatase activity was measured in the manner described by Covey, D. F., Biochem. Biophys. Res. Commun. 157 (1), 81-86 (1988).
The inhibitory activity of the aromatase with the compounds was evaluated in 50% inhibitory concentration (IC50) of the aromatase.
An aromatase base was taken from microsomes of human placenta and [19-^14 C]4-androstene-3,17 dione was used as a substrate. H^14 COOH was released into a reaction mixture after aromatization and its radioactivity was measured to evaluate the aromatase activity.
The inhibitory activity of the aromatase and the concentration of the compounds were depicted in a graph from which the IC50 was calculated.
To a solution of phosphoric acid buffer, [19-^14 C]4-androstene-3,17-dione (1×10^-6 M, 2 kBq/ml), microsomes arising from human placenta (0.1 mg/ml, protein concentration), coenzyme (2×10^-3 M, […]), glucose-6-phosphoric acid (4×10^-3 M), and glucose-6-phosphoric acid dehydrogenase (4U/ml) were added and reacted under stirring at 37° C. for 30 min.
The compound that was dissolved in DMSO was added into the reaction mixture and the final concentration of MDSO was in the range of 0.1 to 0.55% by volume. Chloroform (5 ml) was then added into the reaction mixture to terminate the reaction and to allow for recovery of the H^14 COOH in a water layer. The collected water layer (0.1 ml) was added in liquid scintillation cocktail (Atomlight, duPont, 4 ml) to measure its radioactivity. 4-Hydroxyandrostenedione was used as a positive control.

A further experiment relates to mastocarcinoma. The experiment is described as follows: Inhibition of tumor growth in rats with mastocarcinoma after 7,12-dimethylbenzanthracene. Format: in vivo, Sprague-Dawley rats. As to conditions: Rattus norvegicus, 600 h, read-out: I.R. (inhibition rate of tumor growth). The method, then:
Female Sprague-Dawley rates aged 50 days were orally given 7,12-dimethylbenzanthracene (15 mg/kg) and observed for two months. The rats that developed spontaneous mastocarcinoma were selected and divided into three groups of 15 animals.
The first group was administered daily an ip injection for 20 consecutive days in an amount of 20 mg/kg (body weight) of the compounds in a physiological salt solution (10 ml).
The second group was also treated in the same manner as the first group except that 4-hydroxyandrostenedione was used as a positive control.
The third group was administered only an amount of 10 ml of a physiological salt solution.
After 5 days from the last injection, the rats were sacrificed to enucleate tumors.
The tumors were weighed and the mean tumor weight (T) of the first and the second groups was calculated. The mean tumor weight (C) of the third group was also calculated. […] [formula]

[1] abbreviates: microsomes of human placenta, 0.1 mg/ml protein, substrate [19-14C]4-androstene-3,17-dione 1×10^-6 M, 37° C., 30 min, read-out: 50% inhibitory concentration (IC50) of the aromatase activity.
The mark [2] stands for this setting: female Sprague-Dawley rats, daily ip 20 mg/kg for 20 consecutive days, tumors weighed 5 days after last injection.

Each structure is given as a SMILES string. pIC50: −log10 of the molar value. Where two headings read alike, the source gives them in different places.

Take `CC(C)c1ccc(CC2CCCC2(O)Cn2ccnc2)cc1` (stereo not shown) [compound 21]: the pIC50 at aromatase (setting [1]) is 5.20. Besides, in the experiment with mastocarcinoma (setting [2]), the inhibition in vivo at 20 mg/kg is 72%.

`OC1(Cn2ccnc2)CCCC1Cc1ccc(F)cc1F` (stereo not shown) [Comp. No. 10, 2-(2,4-Difluorobenzyl)-1-(imidazoly-1-yl-methyl)cyclopentanol] had a pIC50 against aromatase of 6.32. In the experiment on mastocarcinoma (setting [2]), the inhibition in vivo at 20 mg/kg was 85%.

Regarding `OC1(Cn2ccnc2)CCCC1Cc1ccc(F)cc1` (stereo not shown) [Comp. No. 2, 2-(-Fluorobenzyl)-1-(imidazoly-1-ylmethyl)cyclopentanol], the pIC50 against aromatase is 5.15. The inhibition in vivo at 20 mg/kg with mastocarcinoma (setting [2]) turned out to be 70%.

`OC1(Cn2cncn2)CCCC1Cc1ccc(Cl)cc1` (stereo not shown) [compound 3] had a pIC50 against aromatase of 5.42. For the same molecule, the inhibition in vivo at 20 mg/kg in the experiment with mastocarcinoma (setting [2]) worked out at 64%.

Turning to `C[C@]12CCC(=O)C(O)=C1CC[C@@H]1[C@@H]2CC[C@]2(C)C(=O)CC[C@@H]12` [Control, 4-Hydroxyandrostenedione, reference compound], on aromatase, the pIC50 was 4.70.

`CC1(C)CCC(Cc2ccc(F)cc2F)C1(O)Cn1ccnc1` (stereo not shown) [compound 17]: the pIC50 on aromatase was 6.40. Also, the inhibition in vivo at 20 mg/kg with mastocarcinoma (setting [2]) came to 67%.

For the molecule `CC1(C)CCC(Cc2ccc(C(F)(F)F)cc2)C1(O)Cn1cncn1` (stereo not shown) [compound 18], on aromatase, the pIC50 was 5.14. In addition, the inhibition in vivo at 20 mg/kg in the experiment with mastocarcinoma (setting [2]) was 65%.

Consider `CC(C)c1ccc(CC2CCCC2(O)Cn2cncn2)cc1` (stereo not shown) [compound 20], for which, at aromatase, the pIC50 was 5.37. The inhibition in vivo at 20 mg/kg in the experiment on mastocarcinoma (setting [2]) was determined as 60%.

As for `CC1(C)CCC(Cc2ccc(Cl)cc2)C1(O)Cn1cncn1` (stereo not shown) [compound 15], at aromatase, the pIC50 is 5.33. The inhibition in vivo at 20 mg/kg in the experiment on mastocarcinoma (ip) was 74%.

The molecule `N#Cc1ccc(CC2CCCC2(O)Cn2cncn2)cc1` (stereo not shown) [compound 5] had a pIC50 on aromatase of 5.14. The inhibition in vivo at 20 mg/kg in the experiment with mastocarcinoma (setting [2]) was 60%.

For `CC1(C)CCC(Cc2ccccc2-c2ccccc2)C1(O)Cn1ccnc1` (stereo not shown) [compound 7], the pIC50 on aromatase (setting [1]) is 5.43. For the same molecule, the inhibition in vivo at 20 mg/kg in the experiment on mastocarcinoma (setting [2]) is 58%.

Consider `CC1(C)CCC(Cc2ccc(C(F)(F)F)cc2)C1(O)Cn1ccnc1` (stereo not shown) [compound 19], for which the pIC50 at aromatase was 5.26. Moreover, the inhibition in vivo at 20 mg/kg in the experiment with mastocarcinoma (setting [2]) was found to be 63%.

In the case of `CC1(C)CCC(Cc2ccc(-c3ccccc3)cc2)C1(O)Cn1ccnc1` (stereo not shown) [compound 8], on aromatase (setting [1]), the pIC50 is 5.39. The inhibition in vivo at 20 mg/kg in the experiment on mastocarcinoma (setting [2]) turned out to be 60%.

Regarding `OC1(Cn2cncn2)CCCC1Cc1ccc(F)cc1F` (stereo not shown) [Comp. No. 9, 2-(2,4-Difluorobenzyl)-1-(1,2,4-triazoly-1-yl-methyl)cyclopentanol], at aromatase, the pIC50 is 5.12. The inhibition in vivo at 20 mg/kg in the experiment on mastocarcinoma (setting [2]) worked out at 72%.

On aromatase, `OC1(Cn2cncn2)CCCC1Cc1ccc(F)cc1` (stereo not shown) [Comp. No. 1, 2-(p-Fluorobenzyl)-1-(1,2,4-triazoly-1-yl-methyl)cyclopentanol] showed a pIC50 of 5.46. For the same molecule, in the experiment on mastocarcinoma (setting [2]), the inhibition in vivo at 20 mg/kg was 60%.

For the molecule `CC1(C)CCC(Cc2ccc(Cl)cc2)C1(O)Cn1ccnc1` (stereo not shown) [compound 16], the pIC50 against aromatase is 6.52. In addition, in the experiment with mastocarcinoma (setting [2]), the inhibition in vivo at 20 mg/kg came to 83%.

For the molecule `CC(C)c1ccc(CC2CCC(C)(C)C2(O)Cn2cncn2)cc1` (stereo not shown) [compound 13], the pIC50 on aromatase was 5.08. Also, in the experiment on mastocarcinoma (setting [2]), the inhibition in vivo at 20 mg/kg was determined as 55%.

In turn, `CC(C)c1ccc(CC2CCC(C)(C)C2(O)Cn2ccnc2)cc1` (stereo not shown) [compound 14] gave a pIC50 against aromatase of 5.22. In addition, the inhibition in vivo at 20 mg/kg in the experiment with mastocarcinoma (setting [2]) was 63%.

`OC1(Cn2ccnc2)CCCC1Cc1ccc(Cl)cc1` (stereo not shown) [compound 4]: the pIC50 against aromatase is 5.30. In the experiment on mastocarcinoma (setting [2]), the inhibition in vivo at 20 mg/kg stood at 74%.

Regarding `N#Cc1ccc(CC2CCCC2(O)Cn2ccnc2)cc1` (stereo not shown) [compound 6], the pIC50 at aromatase (setting [1]) was 5.35. Moreover, the inhibition in vivo at 20 mg/kg with mastocarcinoma (setting [2]) is 53%.

With `CC(C)(C)c1ccc(CC2CCC(C)(C)C2(O)Cn2cncn2)cc1` (stereo not shown) [compound 11], the pIC50 at aromatase was 5.59. Moreover, the inhibition in vivo at 20 mg/kg in the experiment on mastocarcinoma (setting [2]) was found to be 71%.

At aromatase, `CC(C)(C)c1ccc(CC2CCC(C)(C)C2(O)Cn2ccnc2)cc1` (stereo not shown) [compound 12] showed a pIC50 of 5.38. In the experiment with mastocarcinoma (setting [2]), the inhibition in vivo at 20 mg/kg turned out to be 73%.
